Measurements from article PMC6856039 (Investigational New Drugs, 2019).
Entries after “also recorded” stand apart in the source; their conditions may differ.

System: Japanese patients with advanced EGFR mutation-positive NSCLC
Assay: Phase I study: dose-limiting toxicities, adverse drug reactions, tolerability
Type: in vivo, human
Conditions: for patients who presented a DLT: Cycle 1 of dose escalation phase; for maximum tolerated dose (MTD): dose escalation phase
Procedure: This was an open-label, non-randomized, dose escalation phase I study conducted between December 14, 2015 and July 7, 2016 at 12 centers in Japan. The study was conducted in three phases (dose escalation phase, expansion phase, and extension phase), and the design is shown in Supplementary Fig. 1 (Online Resource 1). […] In patients who received the BID regimen, the administration interval was ≥10 h.
The first phase was the dose escalation phase conducted according to a 3 + 3 design, with a minimum of three patients treated at each dose level. […] The dosing rationale was derived from a 4-weeks repeated oral-dose toxicology study in monkeys. […] If none of the initial three patients treated within a dose level experienced a dose-limiting toxicity (DLT) during Cycle 1, the dose was escalated to the next level. […] If none of the three additional patients experienced DLTs after all of them completed Cycle 1, the dose was escalated to the next level. If at least one of the additional three patients developed a DLT, then the dose escalation was stopped and at least six evaluable patients were enrolled at the previous dose level to establish the maximum tolerated dose (MTD). The maximum dose level was defined as Dose Level 9 (150 mg/day). Based on safety and PK results, the dosing schedule could be changed to a BID regimen.
AEs were evaluated and graded according to the National Cancer Institute Common Terminology Criteria for Adverse Events Version 4.03. DLTs were also evaluated and defined as hematologic toxicity (Grade 4 neutropenia lasting >7 days, Grade 4 thrombocytopenia or Grade 3 thrombocytopenia associated with bleeding and requiring blood transfusion, or febrile neutropenia) or non-hematologic toxicity (Grade ≥3 nausea/vomiting uncontrolled by aggressive antiemetic treatment, Grade ≥3 diarrhea lasting >48 h and unresponsive to treatment, Grade ≥3 aspartate aminotransferase/alanine aminotransferase lasting >7 days, corneal disorder worsening by ≥1 grade, or Grade ≥3 other non-hematological toxicity).

Q: With `C=CC(=O)N[C@H]1CCc2c(-c3cnc4ccccc4c3)c3c(N)ncnc3n2C1` [TAS-121] as the compound, how does the “Urticaria, ≥G3” value (12 mg/day BID, N = 5) read?
A: 0 n

Q: And the “Venous thromboembolism, any grade” value (12 mg/day BID, N = 5)?
A: 0 n

Q: And the “Venous thromboembolism, ≥G3” value (12 mg/day BID, N = 5)?
A: 0 n

Q: What about the “Vomiting, ≥G3” value (12 mg/day BID, N = 5) of the same compound?
A: 0 n

Q: And the “WBC decreased, any grade” value (12 mg/day BID, N = 5)?
A: 0 n

Q: What about the “WBC decreased, ≥G3” value (12 mg/day BID, N = 5) of the same compound?
A: 0 n

Q: What about the “ALT increased, ≥G3” value (12 mg/day QD, N = 3) of the same compound?
A: 0 n

Q: And the “AST increased, ≥G3” value (12 mg/day QD, N = 3)?
A: 0 n

Q: What about the “Decreased appetite, ≥G3” value (12 mg/day QD, N = 3) of the same compound?
A: 0 n

Q: What about the “Diarrhea, ≥G3” value (12 mg/day QD, N = 3) of the same compound?
A: 0 n

Q: And the “Dry skin, ≥G3” value (12 mg/day QD, N = 3)?
A: 0 n

Q: And the “Embolic and thrombotic events, any grade” value (12 mg/day QD, N = 3)?
A: 2 n

Q: And the “Hemoglobin decreased, any grade” value (12 mg/day QD, N = 3)?
A: 0 n

Q: What about the “Hemoglobin decreased, ≥G3” value (12 mg/day QD, N = 3) of the same compound?
A: 0 n

Q: And the “Hypoalbuminemia, any grade” value (12 mg/day QD, N = 3)?
A: 0 n

Q: What about the “Hypoalbuminemia, ≥G3” value (12 mg/day QD, N = 3) of the same compound?
A: 0 n

Q: What about the “Interstitial lung disease, any grade” value (12 mg/day QD, N = 3) of the same compound?
A: 0 n

Q: And the “Interstitial lung disease, ≥G3” value (12 mg/day QD, N = 3)?
A: 0 n

Q: And the “Malaise, ≥G3” value (12 mg/day QD, N = 3)?
A: 0 n

Q: What about the “Nausea, any grade” value (12 mg/day QD, N = 3) of the same compound?
A: 2 n

Q: What about the “Nausea, ≥G3” value (12 mg/day QD, N = 3) of the same compound?
A: 0 n

Q: What about the “Other embolic and thrombotic events, any grade” value (12 mg/day QD, N = 3) of the same compound?
A: 2 n

Q: What about the “Other embolic and thrombotic events, ≥G3” value (12 mg/day QD, N = 3) of the same compound?
A: 0 n

Q: And the “Platelet count decreased, any grade” value (12 mg/day QD, N = 3)?
A: 2 n

Q: What about the “Pruritus, any grade” value (12 mg/day QD, N = 3) of the same compound?
A: 0 n

Q: And the “Pruritus, ≥G3” value (12 mg/day QD, N = 3)?
A: 0 n

Q: And the “Pyrexia, ≥G3” value (12 mg/day QD, N = 3)?
A: 0 n

Q: What about the “Rash maculo-papular, any grade” value (12 mg/day QD, N = 3) of the same compound?
A: 1 n

Q: What about the “Rash maculo-papular, ≥G3” value (12 mg/day QD, N = 3) of the same compound?
A: 0 n

Q: And the “Rash, any grade” value (12 mg/day QD, N = 3)?
A: 0 n

Q: And the “Rash, ≥G3” value (12 mg/day QD, N = 3)?
A: 0 n

Q: And the “Stomatitis, ≥G3” value (12 mg/day QD, N = 3)?
A: 0 n

Q: And the “Urticaria, any grade” value (12 mg/day QD, N = 3)?
A: 2 n

Q: And the “Urticaria, ≥G3” value (12 mg/day QD, N = 3)?
A: 1 n

Q: What about the “Vomiting, ≥G3” value (12 mg/day QD, N = 3) of the same compound?
A: 0 n

Q: And the “WBC decreased, any grade” value (12 mg/day QD, N = 3)?
A: 0 n

Q: What about the “WBC decreased, ≥G3” value (12 mg/day QD, N = 3) of the same compound?
A: 0 n

Q: What about the “ALT increased, any grade” value (16 mg/day QD, N = 3) of the same compound?
A: 0 n

Q: And the “ALT increased, ≥G3” value (16 mg/day QD, N = 3)?
A: 0 n

Q: And the “AST increased, any grade” value (16 mg/day QD, N = 3)?
A: 0 n

Q: And the “AST increased, ≥G3” value (16 mg/day QD, N = 3)?
A: 0 n

Q: What about the “Decreased appetite, ≥G3” value (16 mg/day QD, N = 3) of the same compound?
A: 0 n

Q: What about the “Diarrhea, any grade” value (16 mg/day QD, N = 3) of the same compound?
A: 2 n

Q: What about the “Diarrhea, ≥G3” value (16 mg/day QD, N = 3) of the same compound?
A: 1 n

Q: What about the “Dry skin, any grade” value (16 mg/day QD, N = 3) of the same compound?
A: 0 n

Q: And the “Dry skin, ≥G3” value (16 mg/day QD, N = 3)?
A: 0 n

Q: And the “Embolic and thrombotic events, any grade” value (16 mg/day QD, N = 3)?
A: 1 n

Q: And the “Hemoglobin decreased, any grade” value (16 mg/day QD, N = 3)?
A: 1 n

Q: What about the “Hemoglobin decreased, ≥G3” value (16 mg/day QD, N = 3) of the same compound?
A: 0 n

Q: What about the “Hypoalbuminemia, any grade” value (16 mg/day QD, N = 3) of the same compound?
A: 0 n

Q: And the “Hypoalbuminemia, ≥G3” value (16 mg/day QD, N = 3)?
A: 0 n

Q: What about the “Interstitial lung disease, ≥G3” value (16 mg/day QD, N = 3) of the same compound?
A: 1 n

Q: And the “Malaise, any grade” value (16 mg/day QD, N = 3)?
A: 0 n

Q: What about the “Malaise, ≥G3” value (16 mg/day QD, N = 3) of the same compound?
A: 0 n

Q: What about the “Nausea, any grade” value (16 mg/day QD, N = 3) of the same compound?
A: 1 n

Q: What about the “Nausea, ≥G3” value (16 mg/day QD, N = 3) of the same compound?
A: 0 n

Q: And the “Other embolic and thrombotic events, any grade” value (16 mg/day QD, N = 3)?
A: 0 n

Q: What about the “Other embolic and thrombotic events, ≥G3” value (16 mg/day QD, N = 3) of the same compound?
A: 0 n

Q: And the “Pruritus, ≥G3” value (16 mg/day QD, N = 3)?
A: 0 n

Q: And the “Pyrexia, ≥G3” value (16 mg/day QD, N = 3)?
A: 0 n

Q: What about the “Rash maculo-papular, any grade” value (16 mg/day QD, N = 3) of the same compound?
A: 1 n

Q: What about the “Rash maculo-papular, ≥G3” value (16 mg/day QD, N = 3) of the same compound?
A: 0 n

Q: What about the “Rash, any grade” value (16 mg/day QD, N = 3) of the same compound?
A: 0 n

Q: And the “Rash, ≥G3” value (16 mg/day QD, N = 3)?
A: 0 n

Q: And the “Stomatitis, ≥G3” value (16 mg/day QD, N = 3)?
A: 0 n

Q: What about the “Urticaria, any grade” value (16 mg/day QD, N = 3) of the same compound?
A: 1 n

Q: What about the “Urticaria, ≥G3” value (16 mg/day QD, N = 3) of the same compound?
A: 1 n

Q: What about the “Vomiting, ≥G3” value (16 mg/day QD, N = 3) of the same compound?
A: 0 n

Q: And the “WBC decreased, any grade” value (16 mg/day QD, N = 3)?
A: 2 n

Q: What about the “WBC decreased, ≥G3” value (16 mg/day QD, N = 3) of the same compound?
A: 0 n

Q: What about the DLT (BID 8 mg/day) of the same compound?
A: Interstitial lung disease^a

Q: What about the “Number of patients who experienced a DLT” value (BID 8 mg/day, 6 DLT evaluable patients) of the same compound?
A: 1

Q: And the DLT (BID 12 mg/day)?
A: Interstitial lung disease^a; also recorded: Platelet count decreased; also recorded: Left ventricular failure

Q: What about the “Number of patients who experienced a DLT” value (BID 12 mg/day, 5 DLT evaluable patients) of the same compound?
A: 2

Q: What about the “patients who presented a DLT” value (BID regimen) of the same compound?
A: three

Q: What about the “maximum tolerated dose (MTD)” value (BID regimen) of the same compound?
A: 8 mg/day

Q: And the “Number of patients who experienced a DLT” value (QD 4 mg/day, 3 DLT evaluable patients)?
A: 0

Q: And the “Number of patients who experienced a DLT” value (QD 8 mg/day, 6 DLT evaluable patients)?
A: 0

Q: What about the DLT (QD 10 mg/day) of the same compound?
A: Drug-induced liver injury

Q: What about the “Number of patients who experienced a DLT” value (QD 10 mg/day, 6 DLT evaluable patients) of the same compound?
A: 1

Q: And the DLT (QD 12 mg/day)?
A: Platelet count decreased; also recorded: Urticaria

Q: And the “Number of patients who experienced a DLT” value (QD 12 mg/day, 3 DLT evaluable patients)?
A: 2

Q: And the DLT (QD 16 mg/day)?
A: Urticaria; also recorded: Interstitial lung disease^a

Q: What about the “Number of patients who experienced a DLT” value (QD 16 mg/day, 3 DLT evaluable patients) of the same compound?
A: 2

Q: What about the “patients who presented a DLT” value (QD regimen) of the same compound?
A: Five

Q: And the “maximum tolerated dose (MTD)” value (QD regimen)?
A: 10 mg/day

Q: What about the “AST increased, ≥G3” value (Total, N = 134) of the same compound?
A: 0 n

Q: What about the “Decreased appetite, ≥G3” value (Total, N = 134) of the same compound?
A: 0 n

Q: And the “Dry skin, ≥G3” value (Total, N = 134)?
A: 0 n

Q: What about the “Hypoalbuminemia, ≥G3” value (Total, N = 134) of the same compound?
A: 0 n

Q: And the “Malaise, ≥G3” value (Total, N = 134)?
A: 0 n

Q: And the “Nausea, ≥G3” value (Total, N = 134)?
A: 0 n

Q: And the “Pruritus, ≥G3” value (Total, N = 134)?
A: 0 n

Q: What about the “Stomatitis, ≥G3” value (Total, N = 134) of the same compound?
A: 0 n

Q: And the “WBC decreased, ≥G3” value (Total, N = 134)?
A: 0 n

Q: What about the treatment-related deaths (all patients, during the study) of the same compound?
A: No treatment-related deaths
